As a reminder, the MIC is the smallest concentration in the dilution series that meets the test's criterion for growth inhibition. In general, MIC90 refers to the lowest concentration that inhibits either 90% of growth or 90% of the strains tested, depending on the study.

Holding throughout (assay type): functional
Assay [1] relates to Rhizopus arrhizus. Kind of assay: Antifungal activity against Rhizopus oryzae clinical isolate assessed as fungal growth inhibition measured after 24 to 72 hrs by microtitre plate reader analysis. The note with it: time 24-72 hrs.
The subject of assay [2] is Rhizomucor pusillus. Kind of assay: Antifungal activity against Rhizomucor pusillus clinical isolate assessed as fungal growth inhibition measured after 48 hrs by microtitre plate reader analysis.
For assay [3], the system named is Rhizopus arrhizus. The assay can be described thus: Antifungal activity against Rhizopus oryzae CBS 112.07 assessed as fungal growth inhibition measured after 48 hrs by microtitre plate reader assay.
Assay [4] in a line: Antifungal activity against Rhizopus microsporus NRRL 514 assessed as fungal growth inhibition measured after 48 hrs by microtitre plate reader assay.
Assay [5] has as its system Rhizomucor pusillus. The assay can be described thus: Antifungal activity against Rhizomucor pusillus CN(M)231 assessed as fungal growth inhibition measured after 48 hrs by microtitre plate reader assay.
Assay [6] concerns Rhizomucor miehei. Kind of assay: Antifungal activity against Rhizomucor miehei CBS 360.92 assessed as fungal growth inhibition measured after 48 hrs by microtitre plate reader assay.
The test system of the next assay is Lichtheimia corymbifera. Kind of assay: Antifungal activity against Absidia corymbifera SZMC 2010 assessed as fungal growth inhibition measured after 48 hrs by microtitre plate reader assay.
Assay [7] relates to Syncephalastrum racemosum. Kind of assay: Antifungal activity against Syncephalastrum racemosum SZMC 2011 assessed as fungal growth inhibition measured after 48 hrs by microtitre plate reader assay.
The subject of assay [8] is Rhizopus arrhizus. The assay can be described thus: Antifungal activity against Rhizopus oryzae CBS 146.90 assessed as fungal growth inhibition.
Assay [9] deals with Rhizomucor pusillus. The assay can be described thus: Antifungal activity against Rhizomucor pusillus ETH M4920 assessed as fungal growth inhibition.
For assay [10], the system named is Rhizopus arrhizus. The assay can be described thus: Antifungal activity against Rhizopus oryzae clinical isolate assessed as fungal growth inhibition by checkerboard broth microdilution assay.
Assay [11] relates to Rhizopus arrhizus. The assay can be described thus: Antifungal activity against Rhizopus oryzae CBS 109939 assessed as fungal growth inhibition by checkerboard broth microdilution assay. Background: Dilution methods test growth across graded concentrations, often in twofold steps.
Assay [12] relates to Rhizomucor miehei. Kind of assay: Antifungal activity against Rhizomucor miehei CBS 360.92 assessed as fungal growth inhibition.
The next assay has as its system Mucor mucedo. The assay can be described thus: Antifungal activity against Mucor mucedo WRL CN(M) assessed as fungal growth inhibition.
The next assay concerns Mucor racemosus. The assay can be described thus: Antifungal activity against Mucor racemosus WRL CN(M)304 assessed as fungal growth inhibition.
For assay [13], the system named is Mucor circinelloides. Kind of assay: Antifungal activity against Mucor circinelloides MS 12 assessed as fungal growth inhibition.
A further assay deals with Absidia glauca. The assay can be described thus: Antifungal activity against Absidia glauca SZMC 11072 assessed as fungal growth inhibition.
The test system of assay [14] is Rhizopus arrhizus. Kind of assay: Antifungal activity against Rhizopus oryzae clinical isolate assessed as fungal growth inhibition.
The next assay concerns Rhizopus homothallicus. Kind of assay: Antifungal activity against Rhizopus homothallicus clinical isolate assessed as fungal growth inhibition.
In assay [15] the test system is Mucor circinelloides. Kind of assay: Antifungal activity against Mucor circinelloides clinical isolate assessed as fungal growth inhibition.
The test system of assay [16] is Cunninghamella bertholletiae. Kind of assay: Antifungal activity against Cunninghamella bertholletiae clinical isolate assessed as fungal growth inhibition.
Assay [17] has as its system Syncephalastrum racemosum. The assay can be described thus: Antifungal activity against Syncephalastrum racemosum SZMC 2011 assessed as fungal growth inhibition measured after 24 hrs by microtitre plate reader assay.
Assay [18] relates to Rhizomucor pusillus. Kind of assay: Antifungal activity against environmental and clinical isolate Rhizomucor pusillus assessed as fungal growth inhibition measured after 24 to 48 hrs by plate reader assay. The note with it: time 24-48 hrs.
The subject of assay [19] is Rhizomucor miehei. The assay can be described thus: Antifungal activity against environmental and clinical isolate Rhizomucor miehei assessed as fungal growth inhibition measured after 24 to 48 hrs by plate reader assay. The note with it: time 24-48 hrs.

≈ marks a conversion by molar mass, not a printed value.

As for `CC(C)n1c(/C=C/[C@H](O)C[C@H](O)CC(=O)O)c(-c2ccc(F)cc2)c2ccccc21`, the MIC with Rhizopus arrhizus [1] was 2 µg/mL (≈ 4.86 µM); with Rhizomucor pusillus [2], 0.4 µg/mL (≈ 0.972 µM); in the assay with Rhizopus arrhizus [3], 3.6 µg/mL (≈ 8.75 µM); in the assay on Rhizomucor pusillus [5] it was 0.4 µg/mL (≈ 0.972 µM); in assay [7], 11 µg/mL (≈ 26.7 µM); in the assay on Rhizopus arrhizus [8] it was 12.5 µg/mL (≈ 30.4 µM). In addition, the MIC in the assay on Rhizomucor pusillus [9] is 6.25 µg/mL (≈ 15.2 µM); in the assay with Rhizopus arrhizus [10], 2 µg/mL; with Rhizopus arrhizus [11], 2 µg/mL; in the assay on Rhizomucor miehei [12], 3.12 µg/mL (≈ 7.59 µM); in the assay with Mucor mucedo, 6.25 µg/mL (≈ 15.2 µM); in the assay on Mucor racemosus, 25 µg/mL (≈ 60.8 µM). For the same compound, the MIC in the assay on Mucor circinelloides [13] was found to be 4 µg/mL (≈ 9.72 µM); with Absidia glauca, 6.25 µg/mL (≈ 15.2 µM). Moreover, the MIC90 in assay [4] was found to be 33 µg/mL (≈ 80.2 µM); in the assay with Rhizomucor miehei [6], 3.6 µg/mL (≈ 8.75 µM); with Lichtheimia corymbifera it was 3.6 µg/mL (≈ 8.75 µM).

Consider `CC[C@H](C)C(=O)O[C@H]1C[C@@H](C)C=C2C=C[C@H](C)[C@H](CC[C@@H]3C[C@@H](O)CC(=O)O3)[C@H]21` [LOVASTATIN], for which the minimal inhibitory concentration (MIC) in the assay on Rhizopus arrhizus [1] was 128 µg/mL (≈ 316 µM); in the assay with Rhizopus arrhizus [11] it was 128 µg/mL; in the assay with Rhizopus arrhizus [14], 32.6 µg/mL (≈ 80.5 µM); in the assay on Rhizopus homothallicus, 40 µg/mL (≈ 98.9 µM); in the assay with Mucor circinelloides [15], 16 µg/mL (≈ 39.6 µM); in [16], 32 µg/mL (≈ 79.1 µM). The MIC came to 16 µg/mL (≈ 39.6 µM) in assay [17], 1 µg/mL (≈ 2.47 µM) in the assay with Rhizomucor pusillus [18] and 64 µg/mL (≈ 158 µM) with Rhizomucor miehei [19]. In addition, the MIC90 in the assay on Rhizomucor pusillus [5] amounted to 3.6 µg/mL (≈ 8.9 µM).

Values taken from ChEMBL document CHEMBL5331089, “Mucormycosis: A hidden mystery of fungal infection, possible diagnosis, treatment and development of new therapeutic agents” (Eur J Med Chem, 2023).
